Our source for the Activity and IC50 values is ChEMBL document CHEMBL2429776, “Cyclic 3-alkyl pyridinium alkaloid monomers from a New Zealand Haliclona sp. marine sponge” (J Nat Prod, 2013).

What all share (format): functional, organism-based
The subject of experiment [1] is Enterococcus faecalis. As to the kind of experiment: Antimicrobial activity against Enterococcus faecalis ATCC 19433 at 8 ug after 24 hrs by disk-diffusion assay.
The subject of another experiment is Saccharomyces cerevisiae. As to the kind of experiment: Antifungal activity against Saccharomyces cerevisiae YCG 117 after 18 hrs. To be noted: YCG 117, 18 h.
The test system of experiment [2] is Enterococcus faecalis. As to the kind of experiment: Antimicrobial activity against Enterococcus faecalis ATCC 19433 at 2 ug after 24 hrs by disk-diffusion assay.
Experiment [3] concerns Enterococcus faecalis. As to the kind of experiment: Antimicrobial activity against Enterococcus faecalis ATCC 19433 at 20 ug after 24 hrs by disk-diffusion assay.
In experiment [4] the test system is Candida albicans. As to the kind of experiment: Antifungal activity against Candida albicans ATCC 10231 at 2 ug after 24 hrs by disk-diffusion assay.
In experiment [5] the test system is Candida albicans. As to the kind of experiment: Antifungal activity against Candida albicans ATCC 10231 at 8 ug after 24 hrs by disk-diffusion assay.
Experiment [6] deals with Candida albicans. As to the kind of experiment: Antifungal activity against Candida albicans ATCC 10231 at 20 ug after 24 hrs by disk-diffusion assay.

SMILES strings stand for the structures. Calls of active or inactive are those of the source. The calls are words filed in the database; no cut-off is given here.

With `c1cc2c[n+](c1)CCCCCCCCCCCCC2`, the outcome in the experiment on Enterococcus faecalis [1], with Enterococcus faecalis [2], in the experiment with Enterococcus faecalis [3], in the experiment with Candida albicans [4], with Candida albicans [5] and in the experiment on Candida albicans [6] was inactive. The compound further had an IC50 in the experiment with Saccharomyces cerevisiae of 1.5 µg/mL.

On to `C1=C\CCCCC[n+]2cccc(c2)CCCCCC/1`, for which the result in the experiment with Enterococcus faecalis [1], in the experiment on Enterococcus faecalis [2], in the experiment on Enterococcus faecalis [3], with Candida albicans [4], in the experiment on Candida albicans [5] and in the experiment with Candida albicans [6] was inactive. The IC50 in the experiment on Saccharomyces cerevisiae is 1.5 µg/mL.

As for `C1=C\CCCCCC[n+]2cccc(c2)CCCCCC/1`, the outcome with Enterococcus faecalis [1], with Enterococcus faecalis [2], in the experiment with Enterococcus faecalis [3], in the experiment on Candida albicans [4], in the experiment with Candida albicans [5] and with Candida albicans [6] was inactive. This compound came in with an IC50 in the experiment with Saccharomyces cerevisiae of 1.5 µg/mL.
